#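 Compound exposure: 48 hours, 5 concentrations, 96-well plates. At the GI50, growth is halved. At the TGI there is no net growth.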
# Assays:
# Test in all cases: NCI-60 cell line screen, 48 h
# NCI-H226 lung = system: NCI-H226 lung
# K-562 leukemia = system: K-562 leukemia
# SF-268 CNS = system: SF-268 CNS
# CCRF-CEM leukemia = system: CCRF-CEM leukemia
# SNB-19 CNS = system: SNB-19 CNS
# SK-MEL-2 melanoma = system: SK-MEL-2 melanoma
# UACC-62 melanoma = system: UACC-62 melanoma
# OVCAR-8 ovarian = system: OVCAR-8 ovarian
# RXF 393 renal = system: RXF 393 renal
# SF-539 CNS = system: SF-539 CNS
# 786-0 renal = system: 786-0 renal
# OVCAR-3 ovarian = system: OVCAR-3 ovarian
# RPMI-8226 leukemia = system: RPMI-8226 leukemia
# KM12 colon = system: KM12 colon
# MCF7 breast = system: MCF7 breast
# BT-549 breast = system: BT-549 breast
# HL-60(TB) leukemia = system: HL-60(TB) leukemia
# MDA-N = system: MDA-N
# HOP-92 NSCLC = system: HOP-92 NSCLC
# COLO 205 colon = system: COLO 205 colon
# U251 CNS = system: U251 CNS
# MDA-MB-435 = system: MDA-MB-435
# CAKI-1 renal = system: CAKI-1 renal
# SN12C renal = system: SN12C renal
# HCT-15 colon = system: HCT-15 colon
# NCI/ADR-RES ovarian = system: NCI/ADR-RES ovarian
# SF-295 CNS = system: SF-295 CNS
# IGROV1 ovarian = system: IGROV1 ovarian
# NCI-H460 lung = system: NCI-H460 lung
# UACC-257 melanoma = system: UACC-257 melanoma
# HOP-62 NSCLC = system: HOP-62 NSCLC
# MDA-MB-231 breast = system: MDA-MB-231 breast
# SW-620 colon = system: SW-620 colon
# PC-3 prostate = system: PC-3 prostate
# EKVX NSCLC = system: EKVX NSCLC
# DU-145 prostate = system: DU-145 prostate
# T-47D breast = system: T-47D breast
# NCI-H522 lung = system: NCI-H522 lung
# M14 melanoma = system: M14 melanoma
# A498 renal = system: A498 renal
# HT29 colon = system: HT29 colon
# SNB-75 CNS = system: SNB-75 CNS
# OVCAR-4 ovarian = system: OVCAR-4 ovarian
# TK-10 renal = system: TK-10 renal
# SK-MEL-28 melanoma = system: SK-MEL-28 melanoma
# SK-OV-3 ovarian = system: SK-OV-3 ovarian
# NCI-H23 lung = system: NCI-H23 lung
# LOX IMVI melanoma = system: LOX IMVI melanoma
# SR leukemia = system: SR leukemia
# UO-31 renal = system: UO-31 renal
# A549 NSCLC = system: A549 NSCLC
# HCC-2998 colon = system: HCC-2998 colon
# MALME-3M melanoma = system: MALME-3M melanoma
# MOLT-4 leukemia = system: MOLT-4 leukemia
# HS 578T breast = system: HS 578T breast
# OVCAR-5 ovarian = system: OVCAR-5 ovarian
# SK-MEL-5 melanoma = system: SK-MEL-5 melanoma
# HCT-116 colon = system: HCT-116 colon
# ACHN renal = system: ACHN renal
compound,measurement,setting,value
OCCCNCC(O)c1ccc(OCc2ccccc2)c(OCc2ccccc2)c1 (centres undefined),TGI,NCI-H226 lung,29.7 µM
same,TGI,K-562 leukemia,33.5 µM
same,TGI,SF-268 CNS,30.9 µM
same,TGI,CCRF-CEM leukemia,17.5 µM
same,TGI,SNB-19 CNS,38.5 µM
same,TGI,SK-MEL-2 melanoma,15.1 µM
same,TGI,UACC-62 melanoma,42.8 µM
same,TGI,OVCAR-8 ovarian,26.6 µM
same,TGI,RXF 393 renal,42.7 µM
same,TGI,SF-539 CNS,27.2 µM
same,TGI,786-0 renal,14.3 µM
same,TGI,OVCAR-3 ovarian,30.4 µM
same,TGI,RPMI-8226 leukemia,19.9 µM
same,TGI,KM12 colon,26 µM
same,TGI,MCF7 breast,16 µM
same,TGI,BT-549 breast,31.9 µM
same,TGI,HL-60(TB) leukemia,21.4 µM
same,TGI,MDA-N,21.6 µM
same,TGI,HOP-92 NSCLC,24.1 µM
same,TGI,COLO 205 colon,10.2 µM
same,TGI,U251 CNS,23.1 µM
same,TGI,MDA-MB-435,15.2 µM
same,TGI,CAKI-1 renal,32.5 µM
same,TGI,SN12C renal,29.7 µM
same,TGI,HCT-15 colon,27.5 µM
same,TGI,NCI/ADR-RES ovarian,37.2 µM
same,TGI,SF-295 CNS,20.8 µM
same,TGI,IGROV1 ovarian,23.4 µM
same,TGI,NCI-H460 lung,15.8 µM
same,TGI,UACC-257 melanoma,25.6 µM
same,TGI,HOP-62 NSCLC,28.8 µM
same,TGI,MDA-MB-231 breast,28.7 µM
same,TGI,SW-620 colon,15.8 µM
same,TGI,PC-3 prostate,25.4 µM
same,TGI,EKVX NSCLC,30.4 µM
same,TGI,DU-145 prostate,30.8 µM
same,TGI,T-47D breast,34.4 µM
same,TGI,NCI-H522 lung,30 µM
same,TGI,M14 melanoma,31.5 µM
same,TGI,A498 renal,25.8 µM
same,TGI,HT29 colon,16 µM
same,TGI,SNB-75 CNS,14.1 µM
same,TGI,OVCAR-4 ovarian,18.3 µM
same,TGI,TK-10 renal,15.8 µM
same,TGI,SK-MEL-28 melanoma,20.4 µM
same,TGI,SK-OV-3 ovarian,24.4 µM
same,TGI,NCI-H23 lung,33.3 µM
same,TGI,LOX IMVI melanoma,13.7 µM
same,TGI,SR leukemia,28 µM
same,TGI,UO-31 renal,28.8 µM
same,TGI,A549 NSCLC,26.3 µM
same,TGI,HCC-2998 colon,10 µM
same,TGI,MALME-3M melanoma,29.7 µM
same,TGI,MOLT-4 leukemia,19.2 µM
same,TGI,HS 578T breast,35.6 µM
same,TGI,OVCAR-5 ovarian,29.5 µM
same,TGI,SK-MEL-5 melanoma,13.5 µM
same,TGI,HCT-116 colon,18.3 µM
same,TGI,ACHN renal,23.8 µM
O=NNc1ccc(S(=O)c2ccccc2)cn1 (centres undefined),TGI,NCI-H226 lung,> 100 µM
same,TGI,K-562 leukemia,> 100 µM
same,TGI,SF-268 CNS,> 100 µM
same,TGI,CCRF-CEM leukemia,> 100 µM
same,TGI,SNB-19 CNS,> 100 µM
same,GI50,SK-MEL-2 melanoma,> 100 µM
same,TGI,SK-MEL-2 melanoma,> 100 µM
same,TGI,UACC-62 melanoma,> 100 µM
same,TGI,OVCAR-8 ovarian,> 100 µM
same,TGI,RXF 393 renal,> 93.7 µM
same,TGI,SF-539 CNS,> 100 µM
same,TGI,786-0 renal,> 100 µM
same,TGI,OVCAR-3 ovarian,> 100 µM
same,GI50,RPMI-8226 leukemia,> 100 µM
same,TGI,RPMI-8226 leukemia,> 100 µM
same,TGI,KM12 colon,> 100 µM
same,TGI,MCF7 breast,> 100 µM
same,TGI,BT-549 breast,> 100 µM
same,TGI,HL-60(TB) leukemia,> 100 µM
same,TGI,MDA-N,> 100 µM
same,GI50,HOP-92 NSCLC,12.2 µM
same,TGI,HOP-92 NSCLC,> 100 µM
same,TGI,COLO 205 colon,> 100 µM
same,TGI,U251 CNS,> 100 µM
same,GI50,MDA-MB-435,> 100 µM
same,TGI,MDA-MB-435,> 100 µM
same,TGI,CAKI-1 renal,> 100 µM
same,TGI,SN12C renal,> 100 µM
same,TGI,HCT-15 colon,> 100 µM
same,TGI,NCI/ADR-RES ovarian,> 100 µM
same,TGI,SF-295 CNS,> 100 µM
same,TGI,IGROV1 ovarian,> 100 µM
same,TGI,NCI-H460 lung,> 100 µM
same,TGI,UACC-257 melanoma,> 100 µM
same,TGI,HOP-62 NSCLC,> 100 µM
same,TGI,MDA-MB-231 breast,> 100 µM
same,TGI,SW-620 colon,> 100 µM
same,TGI,PC-3 prostate,> 100 µM
same,TGI,EKVX NSCLC,> 100 µM
same,TGI,DU-145 prostate,> 100 µM
same,TGI,T-47D breast,> 100 µM
same,TGI,NCI-H522 lung,> 100 µM
same,TGI,M14 melanoma,> 100 µM
same,TGI,A498 renal,> 100 µM
same,TGI,HT29 colon,> 100 µM
same,TGI,SNB-75 CNS,> 100 µM
same,TGI,OVCAR-4 ovarian,> 100 µM
same,TGI,TK-10 renal,> 100 µM
same,TGI,SK-MEL-28 melanoma,> 100 µM
same,TGI,SK-OV-3 ovarian,> 100 µM
same,TGI,NCI-H23 lung,> 100 µM
same,GI50,LOX IMVI melanoma,> 100 µM
same,TGI,LOX IMVI melanoma,> 100 µM
same,TGI,SR leukemia,> 100 µM
same,TGI,UO-31 renal,> 100 µM
same,TGI,A549 NSCLC,> 100 µM
same,GI50,HCC-2998 colon,> 100 µM
same,TGI,HCC-2998 colon,> 100 µM
same,TGI,MALME-3M melanoma,> 100 µM
same,TGI,MOLT-4 leukemia,> 100 µM
same,TGI,HS 578T breast,> 100 µM
same,TGI,OVCAR-5 ovarian,> 100 µM
same,TGI,SK-MEL-5 melanoma,> 100 µM
same,TGI,HCT-116 colon,> 100 µM
same,TGI,ACHN renal,> 100 µM
